Source: publication PMC7584622, “Sensing of autoinducer-2 by functionally distinct receptors in prokaryotes” (Nature Communications, 2020)
“And” between values parts separate entries of the source, which are not always exact repeats. Identical values can stand only once.

Experiments:
PctA-LBD M111A = molecular target: T1, PctA-LBD M111A (Pseudomonas aeruginosa, UniProt G3XD24, M111A); experiment: biochemical; format: binding; details: PctA-LBD M111A 70 μM; DPD/AI-2 700 μM
T1 construct: Amino acids 30-278 and 36-360 of PctA and TlpQ, respectively; His6 (N, cleaved yes); made in house; host or cells: E. coli BL21(DE3) (pET-28a derivative)

PctB-LBD = PctB-LBD (Pseudomonas aeruginosa, UniProt Q9HW91); experiment: ITC binding to PctB-LBD; details: 700 μM DPD/AI-2 into 70 μM PctB-LBD, minor heats, not certain whether they reflect binding
Procedure: ITC experiments were performed at 20 °C using a Nano ITC Standard Volume isothermal calorimeter (TA Instruments, New Castle, DE). […] The stirring speed was 200 r.p.m. and 25 injections were used each experiment. Three independent experiments were performed for each sample. […] ITC data were analyzed and fit with a one-site independent binding model using the NanoAnalyze software version 3.4 provided by the manufacturer, with the heat of dilution subtracted from the experimental titrations before data analysis.

P. aeruginosa PAO1 [1] = experiment: crystal violet quantification of biofilm formation; details: 100 nM DPD/AI-2, 37 °C, 48 h
Procedure: Biofilms were stained with crystal violet and quantified using optical density measurement after incubation at 37 °C for 48 h. Data are mean ± s.e.m. of five independent experiments. b Quantification of biofilm formation by P. aeruginosa strains from confocal imaging. […] Images were reconstructed using the Imaris 9.0 software package (Bitplane, AG) (Supplementary Fig. 6) and biofilm biovolumes were quantified using COMSTAT (www.comstat.dk). Biovolumes were calculated from three biological replicates and each biological replicate was derived from an average of five confocal images.
For crystal violet quantification of biofilm formation, overnight cultures of relevant strains of P. aeruginosa were diluted with TSB medium to an OD600 of 0.05, and 190 μl aliquots of the diluted cells were inoculated into each well of a 96-well microtiter plate (cat# 220400, Zhejiang Sorfa Life Science Research Co., Ltd., China). […] After incubation at 37 °C for 48 h without shaking, culture supernatant was removed and the wells were washed twice with phosphate-buffered saline (PBS). Cells adhering to the wells were stained with 0.1% (w/v) crystal violet for 15 min and then washed three times with PBS. The bacteria-bound dye was dissolved in 200 μl of 95% ethanol and the absorbance was determined at 590 nm.

PctA = molecular target: T2, PctA (Pseudomonas aeruginosa, UniProt G3XD24); experiment: in vitro methylation of PctA by CheR1 (LC-MS/MS); format: biochemical, P. aeruginosa; details: for Methylation level (%) of PctA at E381: CheR1, 10 μM SAM, 1 h, 30 °C; for Methylation level (%) of PctA, Fig. S5a / Methylation level (%) of PctA, Fig. S5b: site not given (Supplementary Fig. 5: E395 and E614)
T2 construct: the membrane fractions containing full-length PctA, KinD or rpHK1S-Z16 were collected; made in house; host or cells: E. coli HCB721 (pHSe5), membrane fractions
Procedure: The reaction was initiated by adding 10 μM SAM and the reaction was allowed to proceed for another 1 h at 30 °C. […] A control experiment was performed with no addition of SAM to check the initial methylation state of PctA. The reaction was stopped by adding 2× SDS-PAGE loading buffer. The reaction products were resolved by SDS-PAGE and stained with Coomassie brilliant blue. The gel bands corresponding to PctA were excised and used for detection and quantification of methylation by nano-LC-MS/MS.
Gel slices excised from SDS-PAGE gels were destained with three washes in 100 μl of 100 mM ammonium bicarbonate in 50% acetonitrile at 37 °C for 15 min. Destained gel pieces were dried in a SpeedVac (Thermo Fisher Scientific) for 15 min. 10 mM DTT in 25 mM ammonium bicarbonate was added to cover the gel pieces and incubated at 56 °C for 1 h. After cooling to room temperature, the supernatant was replaced by 55 mM iodoacetamide in 25 mM ammonium bicarbonate followed by 1 h incubation at room temperature in darkness. Gel slices were washed with 100 μl of 25 mM ammonium bicarbonate for 10 min, and then shrunk in acetonitrile for 10 min. Acetonitrile was removed and the gel slices were dried in a SpeedVac. The dried gel slices were swollen with 20 μl of 12.5 ng µl^−1 Pierce^TM trypsin protease (MS-grade; Thermo Fisher Scientific) in 50 mM ammonium bicarbonate at 4 °C for 1 h. An additional 30 μl of 50 mM ammonium bicarbonate was supplemented, followed by overnight incubation at 37 °C. After digestion, supernatants were transferred to a new tube, and remaining peptides were extracted from the gel slices with 50 μl of 0.1% trifluoroacetic acid at 37 °C for 30 min. Combined extracts for each gel slice were dried in a SpeedVac. The dried peptide samples were resolubilized in 0.1% formic acid and analyzed in C18 reversed-phase column connected to an EASY-nLC 1000 interfaced via a Nanospray Flex ion source to an Orbitrap Fusion Tribrid mass spectrometer (Thermo Fisher Scientific). The LC mobile phase consisted of 0.1% formic acid (v/v) in water (A) and 0.1% formic acid in acetonitrile (B). […] A data-dependent Top 20 method was used with precursor MS1 scan (m/z 350–1550) acquired in the Orbitrap at a resolution of 120,000, followed by Orbitrap HCD-MS/MS and OTHCD-MS/MS of the 20 most abundant multiply charged precursors in the MS1 spectrum. MS2 spectra were acquired at a resolution of 30,000. Methylation on glutamic acid residues of PctA and phosphorylation on histidine residues of KinD were set as variable modifications. Protein identification and quantification were performed using Mascot Daemon version 2.5.1 (Matrix Science, Boston, USA) considering the specific modifications.

P. aeruginosa PAO1 [2] = experiment: quantitative capillary chemotaxis assay
PctC-LBDF147Y = molecular target: T3, PctC-LBDF147Y (Pseudomonas aeruginosa, UniProt Q9HW93, F147Y); experiment: biochemical; format: binding; details: 700 μM DPD/AI-2 into 70 μM PctC-LBD F147Y
T3 construct: the dCACHE-type LBDs of PctB and PctC; His6 (N, cleaved yes); made in house; host or cells: E. coli BL21(DE3) (pET-28a derivative)

PctA-LBD D173A = molecular target: T4, PctA-LBD D173A (Pseudomonas aeruginosa, UniProt G3XD24, D173A); experiment: biochemical; format: binding; details: PctA-LBD D173A 70 μM; DPD/AI-2 700 μM
T4 construct: Amino acids 30-278 and 36-360 of PctA and TlpQ, respectively; His6 (N, cleaved yes); made in house; host or cells: E. coli BL21(DE3) (pET-28a derivative)

PctA-LBD W128A = molecular target: T5, PctA-LBD W128A (Pseudomonas aeruginosa, UniProt G3XD24, W128A); experiment: biochemical; format: binding; details: PctA-LBD W128A 70 μM; DPD/AI-2 700 μM
T5 construct: Amino acids 30-278 and 36-360 of PctA and TlpQ, respectively; His6 (N, cleaved yes); made in house; host or cells: E. coli BL21(DE3) (pET-28a derivative)

PctA-LBD A147F = molecular target: T6, PctA-LBD A147F (Pseudomonas aeruginosa, UniProt G3XD24, A147F); experiment: biochemical; format: binding; details: PctA-LBD A147F 70 μM; DPD/AI-2 700 μM
T6 construct: Amino acids 30-278 and 36-360 of PctA and TlpQ, respectively; His6 (N, cleaved yes); made in house; host or cells: E. coli BL21(DE3) (pET-28a derivative)
T6 sequence (G3XD24 30-278 A147F): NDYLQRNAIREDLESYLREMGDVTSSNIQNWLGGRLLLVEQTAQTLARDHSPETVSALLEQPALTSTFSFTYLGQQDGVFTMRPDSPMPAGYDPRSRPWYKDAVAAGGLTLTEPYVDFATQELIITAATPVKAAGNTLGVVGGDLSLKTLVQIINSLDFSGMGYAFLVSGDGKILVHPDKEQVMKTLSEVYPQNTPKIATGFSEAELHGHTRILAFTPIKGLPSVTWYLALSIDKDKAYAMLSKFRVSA

T5 sequence (G3XD24 30-278 W128A): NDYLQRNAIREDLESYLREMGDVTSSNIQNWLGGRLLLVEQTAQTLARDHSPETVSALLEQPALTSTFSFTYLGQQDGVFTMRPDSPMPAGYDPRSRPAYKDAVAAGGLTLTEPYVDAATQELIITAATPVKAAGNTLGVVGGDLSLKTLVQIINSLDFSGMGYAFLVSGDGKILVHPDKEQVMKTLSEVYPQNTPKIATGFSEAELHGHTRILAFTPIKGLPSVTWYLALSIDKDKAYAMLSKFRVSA
T4 sequence (G3XD24 30-278 D173A): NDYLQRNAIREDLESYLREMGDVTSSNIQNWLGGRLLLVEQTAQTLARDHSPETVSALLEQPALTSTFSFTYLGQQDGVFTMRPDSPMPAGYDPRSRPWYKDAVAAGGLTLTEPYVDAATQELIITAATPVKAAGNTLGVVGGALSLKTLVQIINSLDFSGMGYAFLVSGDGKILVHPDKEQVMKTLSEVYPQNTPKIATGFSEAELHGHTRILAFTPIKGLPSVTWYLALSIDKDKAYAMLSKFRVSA
PctB-LBD, sequence (Q9HW91 32-276): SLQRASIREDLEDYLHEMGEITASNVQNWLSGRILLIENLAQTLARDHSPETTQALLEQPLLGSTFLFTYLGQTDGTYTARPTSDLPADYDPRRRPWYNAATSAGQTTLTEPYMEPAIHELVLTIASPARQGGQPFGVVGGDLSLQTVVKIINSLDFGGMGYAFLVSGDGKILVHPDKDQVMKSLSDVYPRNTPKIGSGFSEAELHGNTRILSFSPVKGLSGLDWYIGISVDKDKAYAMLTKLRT
T3 sequence (Q9HW93 32-279 F147Y): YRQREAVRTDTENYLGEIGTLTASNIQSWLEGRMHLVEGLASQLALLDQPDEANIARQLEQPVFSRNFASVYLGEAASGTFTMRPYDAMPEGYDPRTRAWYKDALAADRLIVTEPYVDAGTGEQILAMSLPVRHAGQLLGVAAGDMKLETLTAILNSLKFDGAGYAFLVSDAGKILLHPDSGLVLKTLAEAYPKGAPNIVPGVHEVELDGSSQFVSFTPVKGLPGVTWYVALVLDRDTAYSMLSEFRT
T2 sequence (G3XD24 whole entry): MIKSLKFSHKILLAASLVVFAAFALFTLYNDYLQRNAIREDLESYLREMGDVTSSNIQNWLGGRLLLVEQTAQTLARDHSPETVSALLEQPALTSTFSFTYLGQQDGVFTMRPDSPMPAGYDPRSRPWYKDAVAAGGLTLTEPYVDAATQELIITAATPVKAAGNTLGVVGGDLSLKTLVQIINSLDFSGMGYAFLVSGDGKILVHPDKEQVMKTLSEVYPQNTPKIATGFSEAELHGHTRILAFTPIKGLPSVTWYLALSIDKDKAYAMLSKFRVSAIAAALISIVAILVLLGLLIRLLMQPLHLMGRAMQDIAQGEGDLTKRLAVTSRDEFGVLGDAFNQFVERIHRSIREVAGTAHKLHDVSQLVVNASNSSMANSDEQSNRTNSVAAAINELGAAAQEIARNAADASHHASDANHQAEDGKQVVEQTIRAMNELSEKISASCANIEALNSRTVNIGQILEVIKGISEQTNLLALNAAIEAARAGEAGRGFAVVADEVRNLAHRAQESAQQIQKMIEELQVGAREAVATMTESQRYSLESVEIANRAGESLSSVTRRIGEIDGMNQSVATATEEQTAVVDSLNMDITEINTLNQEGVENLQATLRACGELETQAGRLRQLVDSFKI
T1 sequence (G3XD24 30-278 M111A): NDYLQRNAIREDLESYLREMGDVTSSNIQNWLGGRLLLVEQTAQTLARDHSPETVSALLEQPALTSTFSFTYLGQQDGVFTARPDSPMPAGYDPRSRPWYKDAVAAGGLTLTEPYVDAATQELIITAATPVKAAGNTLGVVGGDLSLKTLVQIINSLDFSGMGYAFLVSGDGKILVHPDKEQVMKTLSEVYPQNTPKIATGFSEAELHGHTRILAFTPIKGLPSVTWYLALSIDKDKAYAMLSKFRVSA

## CC(=O)C(=O)C(O)CO (centres unmarked) [DPD/AI-2, 4,5-dihydroxy-2,3-pentanedione]
PctA-LBD M111A
  Kd: 14 µM and 21 µM and 17 µM
PctB-LBD
  Kd: 205 µM and 176 µM and 163 µM
P. aeruginosa PAO1 [1]; strain WT(Vector)
  OD590 (crystal violet biofilm): 3.71 and 3.92 and 4.21 and 4.32 and 4.12
P. aeruginosa PAO1 [1]; strain ΔpctA(Vector)
  OD590 (crystal violet biofilm): 2.92 and 3.14 and 3.21 and 2.99 and 3.31
P. aeruginosa PAO1 [1]; strain ΔpctAΔtlpQ(Vector)
  OD590 (crystal violet biofilm): 2.53 and 2.64 and 2.49 and 2.62 and 2.12
P. aeruginosa PAO1 [1]; strain ΔpctAΔtlpQ(pctA)
  OD590 (crystal violet biofilm): 3.05 and 3.43 and 3.56 and 3.32 and 3.18
P. aeruginosa PAO1 [1]; strain ΔpctAΔtlpQ(pctB)
  OD590 (crystal violet biofilm): 2.31 and 2.73 and 2.24 and 2.53 and 2.77
P. aeruginosa PAO1 [1]; strain ΔpctAΔtlpQ(tlpQ)
  OD590 (crystal violet biofilm): 3.41 and 3.66 and 3.44 and 3.21 and 3.40
P. aeruginosa PAO1 [1]; strain ΔtlpQ(Vector)
  OD590 (crystal violet biofilm): 3.21 and 3.31 and 3.58 and 3.67 and 3.42
PctA; 100 μM DPD/AI-2
  Methylation level (%) of PctA at E381: 47.62% and 40.00%
  Methylation level (%) of PctA, Fig. S5a: 41.67% and 36.36% and 40.00%
  Methylation level (%) of PctA, Fig. S5b: 2.78% and 2.86% and 2.41%
PctA; 500 μM DPD/AI-2
  Methylation level (%) of PctA at E381: 66.67% and 55.56% and 63.16%
  Methylation level (%) of PctA, Fig. S5a: 39.22% and 37.21% and 34.21%
  Methylation level (%) of PctA, Fig. S5b: 2.27% and 2.63%
P. aeruginosa PAO1 [2]; 1 μM DPD/AI-2, PAO1, 30 min, buffer capillary subtracted
  Cells per capillary: 3700 and 4300 and 4700 and 2900 and 5300
P. aeruginosa PAO1 [2]; 10 μM DPD/AI-2, PAO1, 30 min, buffer capillary subtracted
  Cells per capillary: 9900 and 11300 and 14200 and 11400 and 10800
P. aeruginosa PAO1 [2]; 100 μM DPD/AI-2, PAO1, 30 min, buffer capillary subtracted
  Cells per capillary: 30800 and 31500 and 39700 and 42100 and 39200
P. aeruginosa PAO1 [2]; 1000 μM DPD/AI-2, PAO1, 30 min, buffer capillary subtracted
  Cells per capillary: 23500 and 25700 and 24700 and 27800 and 19800
P. aeruginosa PAO1 [2]; P. aeruginosa PAO1, capillary, 30 min
  concentration of optimal chemotactic response: 100 µM
P. aeruginosa PAO1 [2]; strain ΔPA1608, 100 μM DPD/AI-2, Fig. 1d
  Cells per capillary: 37200 and 36700 and 39700 and 37700 and 35300
P. aeruginosa PAO1 [2]; strain ΔPA1646, 100 μM DPD/AI-2, Fig. 1d
  Cells per capillary: 37700 and 38800 and 33600 and 35400 and 35300
P. aeruginosa PAO1 [2]; strain ΔPA2573, 100 μM DPD/AI-2, Fig. 1d
  Cells per capillary: 39200 and 34600 and 39900 and 36000 and 39600
P. aeruginosa PAO1 [2]; strain ΔPA2652, 100 μM DPD/AI-2, Fig. 1d
  Cells per capillary: 38500 and 34500 and 34200 and 36900 and 36500
P. aeruginosa PAO1 [2]; strain ΔPA2788, 100 μM DPD/AI-2, Fig. 1d
  Cells per capillary: 33800 and 38800 and 38900 and 36100 and 38600
P. aeruginosa PAO1 [2]; strain ΔPA2867, 100 μM DPD/AI-2, Fig. 1d
  Cells per capillary: 38500 and 34300 and 34100 and 37600 and 33900
P. aeruginosa PAO1 [2]; strain ΔPA2920, 100 μM DPD/AI-2, Fig. 1d
  Cells per capillary: 36800 and 33100 and 39300 and 35100
P. aeruginosa PAO1 [2]; strain ΔPA4290, 100 μM DPD/AI-2, Fig. 1d
  Cells per capillary: 35800 and 35100 and 37600 and 35000 and 38600
P. aeruginosa PAO1 [2]; strain ΔPA4520, 100 μM DPD/AI-2, Fig. 1d
  Cells per capillary: 33900 and 37400 and 33500 and 36700
P. aeruginosa PAO1 [2]; strain ΔPA4633, 100 μM DPD/AI-2, Fig. 1d
  Cells per capillary: 35700 and 39100
P. aeruginosa PAO1 [2]; strain Δaer, 100 μM DPD/AI-2, Fig. 1d
  Cells per capillary: 36600 and 36200 and 39600 and 36400 and 37100
P. aeruginosa PAO1 [2]; strain ΔctpH, 100 μM DPD/AI-2, Fig. 1d
  Cells per capillary: 38900 and 35200 and 37100 and 35400 and 36800
P. aeruginosa PAO1 [2]; strain ΔmcpS, 100 μM DPD/AI-2, Fig. 1d
  Cells per capillary: 36800 and 35200 and 37500 and 35600 and 39600
P. aeruginosa PAO1 [2]; strain ΔpctA, 100 μM DPD/AI-2, Fig. 1d
  Cells per capillary: 21400 and 23800 and 20800 and 21700 and 21800
P. aeruginosa PAO1 [2]; strain ΔpctB, 100 μM DPD/AI-2, Fig. 1d
  Cells per capillary: 37100 and 39500 and 37300 and 38300 and 35300
P. aeruginosa PAO1 [2]; strain ΔpctC, 100 μM DPD/AI-2, Fig. 1d
  Cells per capillary: 35300 and 37100 and 37200 and 36800 and 35800
P. aeruginosa PAO1 [2]; strain ΔtlpQ, 100 μM DPD/AI-2, Fig. 1d
  Cells per capillary: 26100 and 28500 and 25300 and 27300 and 24300
PctC-LBDF147Y
  Kd: 0.24 µM and 0.17 µM and 0.21 µM
PctA-LBD D173A
  Kd: 12 µM and 14 µM and 13 µM and 10 µM
PctA-LBD W128A
  Kd: 25 µM and 24 µM and 18 µM
PctA-LBD A147F
  Kd: 11 µM and 10 µM and 12 µM
